{"source": "PubChem BioAssay AID2060899", "about": "(Molecular Pharmacology Branch, DTP, NCI, 2025)", "test_system": "565726-208-R1-J5-PDC complex spheroids, growth inhibition", "experiment": "Anticancer human tumor 565726-208-R1-J5-PDC patient-derived pancreatic adenocarcinoma cell line growth inhibition [RAS]", "settings": "for IC50: curve of first compound; for viability, T/C: stronger effect = lower value", "method_in_brief": "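Multi-cell-type spheroids: tumor cells plus HUVEC endothelial cells and mesenchymal stem cells. RAS-pathway inhibitors were combined with targeted agents, each dosed in half-log steps down from clinical Cmax, or from 10 microM when Cmax was unknown.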"}
{"compound": "CCN1CCN(Cc2ccc(Nc3ncc(F)c(-c4cc(F)c5nc(C)n(C(C)C)c5c4)n3)nc2)CC1", "note": "+ CCn1c(-c2cc(N3CCN(C)CC3)cnc2C(C)OC)c2c3cc(ccc31)-c1csc(n1)CC(NC(=O)C1CC1C)C(=O)N1CCCC(N1)C(=O)OCC(C)(C)C2;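 further: spheroids exposed to compounds for seven days before readout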;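 on viability, T/C: 100% = DMSO vehicle control viability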", "values": [{"measurement": "IC50", "setting": "second compound 0.000949 µM", "value": 72.8, "unit": "nM"}, {"measurement": "IC50", "setting": "second compound 0.003 µM", "value": "< 3.16", "unit": "nM"}, {"measurement": "IC50", "setting": "second compound 0.00949 µM", "value": "< 3.16", "unit": "nM"}, {"measurement": "IC50", "setting": "second compound 0.03 µM", "value": "< 3.16", "unit": "nM"}, {"measurement": "IC50", "setting": "second compound 0.0949 µM", "value": "< 3.16", "unit": "nM"}, {"measurement": "IC50", "setting": "second compound 0.3 µM", "value": "< 3.16", "unit": "nM"}, {"measurement": "viability, T/C", "setting": "second compound 0.000949 µM, first compound 0.00316 µM", "value": 57.7, "unit": "%"}, {"measurement": "viability, T/C", "setting": "second compound 0.000949 µM, first compound 0.01 µM", "value": 57.9, "unit": "%"}, {"measurement": "viability, T/C", "setting": "second compound 0.000949 µM, first compound 0.0316 µM", "value": 57, "unit": "%"}, {"measurement": "viability, T/C", "setting": "second compound 0.000949 µM, first compound 0.1 µM", "value": 47.2, "unit": "%"}, {"measurement": "viability, T/C", "setting": "second compound 0.000949 µM, first compound 0.316 µM", "value": 35.4, "unit": "%"}, {"measurement": "viability, T/C", "setting": "second compound 0.000949 µM, first compound 1 µM", "value": 31.6, "unit": "%"}, {"measurement": "viability, T/C", "setting": "second compound 0.003 µM, first compound 0.00316 µM", "value": 51.7, "unit": "%"}, {"measurement": "viability, T/C", "setting": "second compound 0.003 µM, first compound 0.01 µM", "value": 41.4, "unit": "%"}, {"measurement": "viability, T/C", "setting": "second compound 0.003 µM, first compound 0.0316 µM", "value": 51.7, "unit": "%"}, {"measurement": "viability, T/C", "setting": "second compound 0.003 µM, first compound 0.1 µM", "value": 35.5, "unit": "%"}, {"measurement": "viability, T/C", "setting": "second compound 0.003 µM, first compound 0.316 µM", "value": 35, "unit": "%"}, {"measurement": "viability, T/C", "setting": "second compound 0.003 µM, first compound 1 µM", "value": 23.9, "unit": "%"}, {"measurement": "viability, T/C", "setting": "second compound 0.00949 µM, first compound 0.00316 µM", "value": 41.4, "unit": "%"}, {"measurement": "viability, T/C", "setting": "second compound 0.00949 µM, first compound 0.01 µM", "value": 41.4, "unit": "%"}, {"measurement": "viability, T/C", "setting": "second compound 0.00949 µM, first compound 0.0316 µM", "value": 31.1, "unit": "%"}, {"measurement": "viability, T/C", "setting": "second compound 0.00949 µM, first compound 0.1 µM", "value": 32.4, "unit": "%"}, {"measurement": "viability, T/C", "setting": "second compound 0.00949 µM, first compound 0.316 µM", "value": 22.3, "unit": "%"}, {"measurement": "viability, T/C", "setting": "second compound 0.00949 µM, first compound 1 µM", "value": 18.8, "unit": "%"}, {"measurement": "viability, T/C", "setting": "second compound 0.03 µM, first compound 0.00316 µM", "value": 33.2, "unit": "%"}, {"measurement": "viability, T/C", "setting": "second compound 0.03 µM, first compound 0.01 µM", "value": 29.2, "unit": "%"}, {"measurement": "viability, T/C", "setting": "second compound 0.03 µM, first compound 0.0316 µM", "value": 28.4, "unit": "%"}, {"measurement": "viability, T/C", "setting": "second compound 0.03 µM, first compound 0.1 µM", "value": 25.5, "unit": "%"}, {"measurement": "viability, T/C", "setting": "second compound 0.03 µM, first compound 0.316 µM", "value": 22.7, "unit": "%"}, {"measurement": "viability, T/C", "setting": "second compound 0.03 µM, first compound 1 µM", "value": 18.8, "unit": "%"}, {"measurement": "viability, T/C", "setting": "second compound 0.0949 µM, first compound 0.00316 µM", "value": 25.1, "unit": "%"}, {"measurement": "viability, T/C", "setting": "second compound 0.0949 µM, first compound 0.01 µM", "value": 23.8, "unit": "%"}, {"measurement": "viability, T/C", "setting": "second compound 0.0949 µM, first compound 0.0316 µM", "value": 22, "unit": "%"}, {"measurement": "viability, T/C", "setting": "second compound 0.0949 µM, first compound 0.1 µM", "value": 21.1, "unit": "%"}, {"measurement": "viability, T/C", "setting": "second compound 0.0949 µM, first compound 0.316 µM", "value": 19.4, "unit": "%"}, {"measurement": "viability, T/C", "setting": "second compound 0.0949 µM, first compound 1 µM", "value": 15.7, "unit": "%"}, {"measurement": "viability, T/C", "setting": "second compound 0.3 µM, first compound 0.00316 µM", "value": 24.1, "unit": "%"}, {"measurement": "viability, T/C", "setting": "second compound 0.3 µM, first compound 0.01 µM", "value": 23.3, "unit": "%"}, {"measurement": "viability, T/C", "setting": "second compound 0.3 µM, first compound 0.0316 µM", "value": 20.1, "unit": "%"}, {"measurement": "viability, T/C", "setting": "second compound 0.3 µM, first compound 0.1 µM", "value": 18.8, "unit": "%"}, {"measurement": "viability, T/C", "setting": "second compound 0.3 µM, first compound 0.316 µM", "value": 18, "unit": "%"}, {"measurement": "viability, T/C", "setting": "second compound 0.3 µM, first compound 1 µM", "value": 15.6, "unit": "%"}]}
